Laboratory results published in patent US10064848B2, “Pyridic ketone derivatives, method of preparing same, and pharmaceutical application thereof” (Shanghai Hengrui Pharmaceutical Co., Ltd., priority 2013, dated 2018).

Assays:
CYP2C6 = CYP2C6 (Homo sapiens, UniProt P10635); test: In vitro CYP enzyme inhibition, human liver microsomes; assay type: in vitro ADME; settings: single point method
Description: (§1) Human liver microsome incubation system was used to reflect the activity of enzymes based on the amount of metabolites produced. Enzyme inhibition of the test compounds was investigated on CYP1A2, CYP2C9, […], CYP3A4m, CYP3A4t and CYP2C19, and IC50 values (a concentration of the test compound that is required for 50% inhibition of enzyme activity) were measured. […] The appropriate amount of test compound standard sample was weighed, and diluted with DMSO to 50 mM to obtain stock solution I. The stock solution I was diluted with PBS to 100 μM to obtain the reaction liquid which is to be used in incubation. [table] The reaction mixture was prepared: 60 μL [table] The above mixture was preincubated for 5 minutes at 37° C., followed by addition of 40 μL of NADPH (2.5 mM, PBS formulation). The mixture solution was incubated for 20 minutes at 37° C. All incubated samples were set to double samples. 300 μL ice-cold acetonitrile was added to terminate the reaction. The reaction solution was added with 100 μl internal standard, mixed uniformly, and centrifuged for 10 minutes at 3500 rpm. The supernatant was transferred to the LC-MS/MS analysis. The activity of enzymes was reflected by the production amount of metabolites. Using a single point method, the formula was calculated as follows: According to the known literature: IC50>10 μM belongs to weaker inhibition, 1 μM<IC50<10 μM belong to moderate inhibition, IC50<1 μM belong to strong inhibition.

CYP3A4t = molecular target: T1, CYP3A4t (Homo sapiens, UniProt P08684); test: as above; assay type: in vitro ADME; settings: probe Testosterone, single point method
T1 construct: from tissue; host or cells: human liver microsomes
T1 sequence (P08684 whole entry): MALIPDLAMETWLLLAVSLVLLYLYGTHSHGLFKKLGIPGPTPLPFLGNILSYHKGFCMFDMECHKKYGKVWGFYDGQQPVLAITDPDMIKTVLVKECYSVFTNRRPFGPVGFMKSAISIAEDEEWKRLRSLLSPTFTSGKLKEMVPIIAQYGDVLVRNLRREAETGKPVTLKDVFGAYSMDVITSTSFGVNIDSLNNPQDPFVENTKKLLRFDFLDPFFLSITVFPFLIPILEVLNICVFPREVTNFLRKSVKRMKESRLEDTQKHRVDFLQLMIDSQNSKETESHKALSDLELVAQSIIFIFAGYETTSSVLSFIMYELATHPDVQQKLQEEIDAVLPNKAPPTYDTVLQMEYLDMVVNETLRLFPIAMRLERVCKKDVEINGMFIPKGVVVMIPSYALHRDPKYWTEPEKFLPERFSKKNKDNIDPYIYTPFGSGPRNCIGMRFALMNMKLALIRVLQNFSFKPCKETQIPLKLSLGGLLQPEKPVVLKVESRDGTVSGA
Description: as §1

CYP2C19 = molecular target: T2, CYP2C19 (Homo sapiens, UniProt P33261); test: as above; assay type: in vitro ADME; settings: probe (S)-Mephenytoin, single point method
T2 construct: from tissue; host or cells: human liver microsomes
T2 sequence (P33261 whole entry): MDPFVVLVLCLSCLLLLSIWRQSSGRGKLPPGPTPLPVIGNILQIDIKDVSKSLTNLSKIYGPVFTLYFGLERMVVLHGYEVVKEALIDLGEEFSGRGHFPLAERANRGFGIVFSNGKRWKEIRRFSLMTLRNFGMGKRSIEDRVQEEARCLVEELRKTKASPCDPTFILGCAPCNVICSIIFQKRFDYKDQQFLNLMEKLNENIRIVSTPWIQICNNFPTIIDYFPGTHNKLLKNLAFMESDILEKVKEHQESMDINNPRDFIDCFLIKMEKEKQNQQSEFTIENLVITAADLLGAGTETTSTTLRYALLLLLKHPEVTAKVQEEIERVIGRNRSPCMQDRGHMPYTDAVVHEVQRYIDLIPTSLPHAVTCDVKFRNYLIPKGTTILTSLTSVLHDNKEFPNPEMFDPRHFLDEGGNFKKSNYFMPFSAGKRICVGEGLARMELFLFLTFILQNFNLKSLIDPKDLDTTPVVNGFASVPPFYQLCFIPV
Description: as §1

CYP3A4m = molecular target: T3, CYP3A4m (Homo sapiens, UniProt P08684); test: as above; assay type: in vitro ADME; settings: probe Midazolam, single point method
T3 construct: from tissue; host or cells: human liver microsomes
T3 sequence (P08684 whole entry): as the sequence (P08684 whole entry) above
Description: as §1

CYP1A2 = molecular target: T4, CYP1A2 (Homo sapiens, UniProt P05177); test: as above; assay type: in vitro ADME; settings: probe Phenacetin, single point method
T4 construct: from tissue; host or cells: human liver microsomes
T4 sequence (P05177 1-516): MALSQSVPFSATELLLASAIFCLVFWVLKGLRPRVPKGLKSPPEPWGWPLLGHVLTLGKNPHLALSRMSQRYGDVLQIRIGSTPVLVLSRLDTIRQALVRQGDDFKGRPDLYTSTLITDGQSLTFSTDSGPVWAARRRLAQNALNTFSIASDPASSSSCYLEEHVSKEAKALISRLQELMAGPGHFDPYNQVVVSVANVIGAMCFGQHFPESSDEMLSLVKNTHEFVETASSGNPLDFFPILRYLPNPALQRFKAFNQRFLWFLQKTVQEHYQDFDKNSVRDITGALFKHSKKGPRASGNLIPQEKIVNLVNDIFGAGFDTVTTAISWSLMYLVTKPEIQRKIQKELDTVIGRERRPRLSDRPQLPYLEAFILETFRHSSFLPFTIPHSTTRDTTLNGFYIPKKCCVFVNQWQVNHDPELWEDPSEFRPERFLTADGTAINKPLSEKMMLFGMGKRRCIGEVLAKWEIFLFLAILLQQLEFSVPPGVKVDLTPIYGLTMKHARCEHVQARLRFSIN
Description: as §1

CYP2C9 = molecular target: T5, CYP2C9 (Homo sapiens, UniProt P11712); test: as above; assay type: in vitro ADME; settings: probe Diclofenac, single point method
T5 construct: from tissue; host or cells: human liver microsomes
T5 sequence (P11712 whole entry): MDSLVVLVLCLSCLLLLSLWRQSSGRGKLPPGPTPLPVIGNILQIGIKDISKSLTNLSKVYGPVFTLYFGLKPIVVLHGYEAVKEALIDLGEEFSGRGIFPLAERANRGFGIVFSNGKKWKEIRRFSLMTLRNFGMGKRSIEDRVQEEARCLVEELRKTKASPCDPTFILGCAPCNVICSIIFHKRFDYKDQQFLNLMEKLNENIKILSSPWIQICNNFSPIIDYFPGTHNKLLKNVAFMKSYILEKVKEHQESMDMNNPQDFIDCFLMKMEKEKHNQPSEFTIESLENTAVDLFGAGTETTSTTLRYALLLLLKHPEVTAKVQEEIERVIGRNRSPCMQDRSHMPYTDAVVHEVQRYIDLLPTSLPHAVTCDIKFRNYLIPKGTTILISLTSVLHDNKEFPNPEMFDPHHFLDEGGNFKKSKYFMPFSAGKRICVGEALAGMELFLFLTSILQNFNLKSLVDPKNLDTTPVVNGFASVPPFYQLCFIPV
Description: as §1

[1] = Pharmacokinetics assay in SD rats, intragastric administration; assay type: in vivo, Sprague-Dawley (SD) rats; settings: 10 mg/kg; for AUC / CL/F / half-life / MRT / Cmax: both sexes, Sprague-Dawley, rat, plasma, po; for AUC: read-out: Area Under Curve AUC; for CL/F: read-out: Clearance CL/F; for half-life: read-out: Half-Life T½ (converted); for MRT: read-out: Mean Residence Time MRT; for Cmax: read-out: Plasma Conc. Cmax
Description: Sprague-Dawley (SD) rats were used as test animals. The compounds of Example 1, Example 22, Example 29 and Example 31 were administered intragastrically to rats to determine the drug concentration in plasma at different time points by a LC/MS/MS method. The pharmacokinetic behavior of the compounds of the present invention was studied and evaluated in rats.
16 Healthy adult SD rats, half male and half female, purchased from SINO-BRITSH SIPPR/BK LAB. ANIMAL LTD., CO, Certificate No.: SCXK (Shanghai) 2008-0016, were divided into four groups, with 4 rats in each group.
The appropriate amounts of test compounds were weighed and mixed with 40 μL of tween 80 and 0.5% CMC-Na to prepare a 1 mg/mL suspension by an ultrasonic method.
After an overnight fast, 16 SD rats, half male and half female, were divided into 4 groups, with 4 rats in each group, and administered the test compounds intragastrically at a dose of 10 mg/kg, and an administration volume of 10 mL/kg.
Blood samples (0.1 mL) were taken from the orbital sinus before administration, and at 0.5 h, 1 h, 2 h, 4 h, 6 h, 8 h, 11 h, 24 h and 48 h after administration, stored in heparinized tubes, and centrifuged for 10 minutes at 3,500 rpm to separate blood plasma. The plasma samples were stored at −20° C. The rats were fed 2 hours after administration.
The concentration of the test compounds in rat plasma after intragastrically administering the test compounds was analyzed by a LC-MS/MS method. The linearity range of the method is 1.00-2000 ng/ml, and the lower limit of quantification is 1.00 ng/ml. Plasma samples were analyzed after protein precipitation.

CYP2C6, sequence (P10635 whole entry): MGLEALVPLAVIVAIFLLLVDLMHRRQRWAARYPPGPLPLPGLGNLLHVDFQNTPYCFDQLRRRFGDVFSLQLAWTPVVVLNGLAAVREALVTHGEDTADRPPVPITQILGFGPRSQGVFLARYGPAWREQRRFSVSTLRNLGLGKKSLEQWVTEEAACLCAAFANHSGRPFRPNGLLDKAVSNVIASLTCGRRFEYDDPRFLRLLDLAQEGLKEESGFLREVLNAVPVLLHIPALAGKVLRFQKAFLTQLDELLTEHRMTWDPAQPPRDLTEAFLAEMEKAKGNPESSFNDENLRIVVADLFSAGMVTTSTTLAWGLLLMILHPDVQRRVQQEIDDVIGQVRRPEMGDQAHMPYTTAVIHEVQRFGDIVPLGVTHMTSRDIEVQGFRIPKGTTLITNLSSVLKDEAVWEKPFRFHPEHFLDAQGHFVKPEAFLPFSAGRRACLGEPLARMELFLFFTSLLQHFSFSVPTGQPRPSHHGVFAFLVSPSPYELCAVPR

SMILES	IC50 (CYP2C6) [µM]	IC50 (CYP3A4t) [µM]	IC50 (CYP2C19) [µM]	IC50 (CYP3A4m) [µM]	IC50 (CYP1A2) [µM]	IC50 (CYP2C9) [µM]	Apparent Distribution Volume Vd [1] [L/kg]	AUC [1] [ng·h/mL]	CL/F [1] [mL/min/kg]	half-life [1] [h]	MRT [1] [h]	Cmax [1] [ng/mL]
CCS(=O)(=O)Nc1cccc(Oc2cc(=O)n(C)c(Nc3ccc(I)cc3F)c2C(N)=O)c1C [Example 3, 4-(3-(ethylsulfonamido)-2-methylphenoxy)-2-((2-fluoro-4-iodophenyl)amino)-1-methyl-6-oxo-1,6-dihydropyridine-3-carboxamide]	> 50	> 50	> 10	> 50	> 50	> 50						
Cc1ccc(Oc2cc(=O)n(C)c(Nc3ccc(I)cc3F)c2C(N)=O)cn1 [Example 31, 2-((2-fluoro-4-iodophenyl)amino)-1-methyl-4-((6-methylpyridin-3-yl)oxy)-6-oxo-1,6-dihydropyridine-3-carboxamide]	> 10	> 10	> 10	> 10	> 10	> 10	4.483 ± 3.051	18100 ± 9970	11.6 ± 5.9	4.12 ± 0.96	4.43 ± 0.96	3370 ± 756

Results, then the compound that gave them:

IC50 (CYP2C6) [µM]	IC50 (CYP3A4t) [µM]	IC50 (CYP2C19) [µM]	IC50 (CYP3A4m) [µM]	IC50 (CYP1A2) [µM]	IC50 (CYP2C9) [µM]	Apparent Distribution Volume Vd [1] [L/kg]	AUC [1] [ng·h/mL]	CL/F [1] [mL/min/kg]	half-life [1] [h]	MRT [1] [h]	Cmax [1] [ng/mL]	SMILES
> 10	> 10	> 10	> 10	> 10	> 10	98.789 ± 42.165	1110 ± 746	224 ± 151	7.18 ± 4.64	11.3 ± 6.7	108 ± 38	Cc1cc(F)ccc1Oc1cc(=O)n(C)c(Nc2ccc(I)cc2F)c1C(N)=O [Example 22, 4-(4-fluoro-2-methylphenoxy)-2-((2-fluoro-4-iodophenyl)amino)-1-methyl-6-oxo-1,6-dihydropyridine-3-carboxamide]
> 10	> 10	> 10	> 10	> 10	> 10	11.319 ± 6.87	6120 ± 3030	32.9 ± 15.5	3.79 ± 0.76	3.79 ± 0.5	1440 ± 396	Cc1ncccc1Oc1cc(=O)n(C)c(Nc2ccc(I)cc2F)c1C(N)=O [Example 29, 2-((2-fluoro-4-iodophenyl)amino)-1-methyl-4-((2-methylpyridin-3-yl)oxy)-6-oxo-1,6-dihydropyridine-3-carboxamide]
> 10	> 10	> 10	> 10	> 10	> 10	163.863 ± 87.909	642 ± 187	280 ± 94.6	6.61 ± 1.66	10.5 ± 2.41	56.3 ± 15.6	Cc1c(F)cccc1Oc1cc(=O)n(C)c(Nc2ccc(I)cc2F)c1C(N)=O [Example 1, 4-(3-fluoro-2-methylphenoxy)-2-((2-fluoro-4-iodophenyl)amino)-1-methyl-6-oxo-1,6-dihydropyridine-3-carboxamide]
